We go through three compounds from patent US20250205217A1, “METHODS OF IMPROVING CANCER IMMUNOTHERAPY” (THE REGENTS OF THE UNIVERSITY OF CALIFORNIA, priority 2022, published 2025).

“Also recorded” adds a separate entry of the source.

For one assay, the system named is B16F10 melanoma cells. The assay is described as follows: B16F10 melanoma tumor volume over time. The class given is in vivo, mice. Conditions: omega-6 rich diet; 5 mg/kg/day via drinking water + anti-CTLA4; vs either agent alone. How it is done: (§1) (A) MB49 bladder cancer tumor volume over time. Following 12 days of pre-treatment with the omega-6 rich diet, tumor cells (1×10^6 MB49 bladder cancer cells) were injected subcutaneously into the mid dorsum. Once tumors reached ˜200 mm^3, treatment was initiated with anti-PD1 (200 μg Q3D), EC5026 (5 mg/kg/day via drinking water), combination anti-PD1+EC5026, or no treatment (control). […] N=3-5 mice per group. P<0.05. (B) B16F10 melanoma tumor volume over time. […]. Following 12 days of pre-treatment with the omega-6 rich diet, tumor cells (1×10^6 B16F10 melanoma cells) were injected subcutaneously into the mid dorsum. Once tumors reached ˜200 mm^3, treatment was initiated with anti-CTLA4 (200 μg 1st dose, then 100 μg Q3D), 1770 (5 mg/kg/day via drinking water), combination 1770+anti-CTLA4, or no treatment (control). […] N=4-5 mice per group.
(A) MB49 bladder cancer tumor volume over time. Following 12 days of pre-treatment with the omega-3 rich diet or control diet, tumor cells (1×10^6 MB49 bladder cancer cells) were injected subcutaneously into the mid dorsum. Once tumors reached ˜200 mm^3, treatment was initiated with either anti-PD1 (200 μg Q3D) or no treatment (control). […] N=3-5 mice per group. p<0.0001. (B) Prostate cancer (RM1) tumor volume over time. […]

The subject of another assay is oxylipin. The experiment in a line: LCMS/MS oxylipin analysis of MB49 bladder cancer tumor tissue. The note with it: mice on the control diet only. The class given is in vivo. On the procedure:
These lipid mediators are potential biomarkers of bladder cancer and the anti-tumor response to the diets (e.g. omega-3 or omega-6 fatty acids), immunotherapy (e.g., anti-PD1), and sEH inhibitor (e.g., 5026). (A) Heatmap of LCMS/MS oxylipin analysis performed on murine MB49 bladder cancer tumor tissue. […] Tumor tissue from mice treated with the control diet only. […] Tumor tissue from mice treated with the control diet only.

Assay [1] relates to MB49 bladder cancer cells. The experiment in a line: Murine bladder cancer model (MB49), subcutaneous tumor growth. Conditions: for MB49 tumor volume, combination with anti-PD1: omega-6 rich diet, 5 mg/kg/day via drinking water + anti-PD1 200 μg Q3D, vs either agent alone, P<0.05. Type of assay: in vivo, mice.
From the text: 10^6 MB49 cells were introduced into mice, and treatment was initiated with established tumors (˜200 mm^3), seven days after tumor injection. The CTLA-4 antibody used is from BioCell, Catalog number BE0131; In VivoMAb anti-mouse CTLA-4 (CD152). See, FIG. 1A and FIG. 1B.
The mice in this study were randomized, and treatment was initiated with established tumors (˜200 mm^3), seven days after […]. See, FIG. 2A-2C; FIG. 9A-9F.
(A & B). Mice were inoculated subcutaneously with 1×10^6 MB49 cells. Treatment initiated when MB49 tumors reached ˜200 mm^3. Mice were randomized and treated with PTUPB (60 mg/kg Q3D, orally) or chemotherapy (cisplatin+gemcitabine; cisplatin=5 mg/kg, gemcitabine=75 mg/kg, Q3D). Mice were sacrificed after 16 days of treatment. n=4-5 mice/group. Gene expression levels of sEH and COX-2 in tumor tissue after 16 days of treatment. Analyzed by qPCR and normalized by GAPDH. A: **Control vs chemotherapy (p=0.0099), **PTUPB vs chemotherapy (p=0.0095); B. **Control vs chemotherapy (p=0.0072), ***PTUPB vs chemotherapy (p=0.0001). (C) Mice were inoculated subcutaneously with 1×10^6 MB49 cells. Treatment initiated when MB49 tumors reached ˜200 mm^3. Mice were randomized and treated with combinations of PTUPB (60 mg/kg Q3D, orally), anti-PD1 (200 μg Q3D), anti-CTLA4 ([…]), chemotherapy (cisplatin+gemcitabine; cisplatin=5 mg/kg, gemcitabine=75 mg/kg, Q3D). Mice were sacrificed after 16 days of treatment. n=4-5 mice/group. *p<0.05. (D and E). Gene expression levels of EGF and VEGF-C in tumor tissue after 16 days of treatment. Analyzed by qPCR and normalized by GAPDH. D: *chemotherapy vs chemotherapy+PTUPB (p=0.0136); E: **Control vs anti-CTLA4 (p=0.0012), **PTUPB vs anti-CTLA4 (p=0.0081), **anti-CTLA4 vs anti-CTLA4+PTUPB (0.0296). (F) Mice were inoculated orthotopically into the bladder wall with 5×10^5 MB49 cells. Treatment was initiated 3 days after tumor injection with PTUPB (60 mg/kg Q3D, orally). n=5 mice per group. **PTUPB vs control (p=0.0018).
as §1
FIGS. 6A-6E Dietary omega-3 supplementation inhibits tumor growth in both fast-growing and slow-growing tumor models in mice. (A) Prostate cancer (RM1) tumor growth over time. Following 12 days of pre-treatment with the omega-3 rich diet or control diet, tumor cells (1×10^5 RM1 prostate cancer cells) were injected subcutaneously into the mid dorsum. […] N=3-5 mice/group. (B) MB49 bladder cancer tumor volume over time. Following 12 days of pre-treatment with the omega-3 rich diet or control diet, tumor cells (1×10^6 MB49 bladder cancer cells) were injected subcutaneously. […] N=3-5 mice/group. […]

Take `CCC(=O)N1CCC(NC(=O)Nc2ccc(OC(F)(F)F)cc2)CC1` [Compound 1770]: in the assay with B16F10 melanoma cells, the “B16F10 melanoma tumor volume, combination with anti-CTLA4” value was “tended to have smaller tumors”.
Consider `CC[C@H](C)C(=O)N1CCC(NC(=O)Nc2ccc(OC(F)(F)F)c(F)c2)CC1` [EC5026], for which, in the assay with oxylipin, the “levels of 7,8-DiHDPE, 17,18-DiHETE, and 15,16-DiHODE in MB49 bladder cancer tissue” value is reported as “prevented this increase”; the “levels of 15(16)-EpODE, 12(13)-EpOME, 17(18)-EpETE and 14(15)-EpETrE in MB49 bladder cancer tissue” value is “prevented the drop in these metabolites, and increased levels of these metabolites compared to controls”. Moreover, the “MB49 tumor volume, combination with anti-PD1” value in assay [1] (5 mg/kg/day) is “significantly smaller tumors”. Moreover, the “MB49 tumor volume, combination with anti-PD1” value in assay [1] (listed as 5026, 5 mg/kg/day) is “unexpected induction of tumor regression; also recorded: synergizes with immunotherapy”.
As to `NS(=O)(=O)c1ccc(-n2nc(CCCNC(=O)Nc3ccc(C(F)(F)F)cc3)cc2-c2ccccc2)cc1` [PTUPB], the “tumor growth, combination with immunotherapy (anti-CTLA-4)” value in assay [1] (10^6 MB49 cells, established tumors (~200 mm^3), seven days after tumor injection, FIG. 1) is given as “unexpected induction of tumor regression; also recorded: enhances immunotherapy”. For the same compound, in assay [1] (PTUPB 60 mg/kg Q3D orally, MB49, FIG. 9), the “tumor growth, alone and with chemotherapy or immunotherapy” value is “blocks tumor growth and enhances chemotherapy and immunotherapy”. Also, the “tumor growth, combination with chemotherapy (gemcitabine and cisplatin) and immunotherapy” value in assay [1] (established MB49 tumors (~200 mm^3), 16 days of treatment, FIG. 2, FIG. 9) was “unexpected induction of tumor regression; also recorded: induce tumor regression”.
